In PMC8286840, “Identifying SARS-CoV-2 antiviral compounds by screening for small molecule inhibitors of Nsp3 papain-like protease” (Biochemical Journal, 2021):
Counter-ions that a name gives are not always drawn. Like-named read-outs stand apart in the source and are kept apart here.

Legend:
[1] = target: T1, SARS-CoV-2 PLpro (nsp3 1564–1878) (Severe acute respiratory syndrome coronavirus 2, UniProt P0DTD1); assay: biochemical; design: FRET-quenched peptide (Pro3) cleavage by PLpro, 10 min pre-incubation, slope over 20 min, normalised to no-compound control; conditions: low concentration screen, read-out: % of control remaining
[2] = target: T1, SARS-CoV-2 PLpro (nsp3 1564–1878); assay: biochemical; design: FRET-quenched peptide (Pro3) cleavage by PLpro, 10 min pre-incubation, slope over 20 min, normalised to no-compound control; conditions: high concentration screen, read-out: % of control remaining

SMILES: c1ccc(-c2cnc(Nc3ccc(OCCN4CCCC4)cc3)s2)cc1 [Flt-3 Inhibitor III]
- remaining activity at 1.25 µM ([1]; Well no.=2421): 99.3%
- remaining activity at 3.75 µM ([2]; Well no.=2421): 98.8%

SMILES: O=C(c1cc2cc(O)ccc2[nH]1)c1cc2cc(O)ccc2[nH]1 [Flt-3 Inhibitor II]
- remaining activity at 1.25 µM ([1]; Well no.=2409): 109%
- remaining activity at 3.75 µM ([2]; Well no.=2409): 110%

SMILES: COc1ccc(C(=O)Nc2sc3c(c2C(N)=O)CCCC3)cc1OC [Flt-3 Inhibitor]
- remaining activity at 1.25 µM ([1]; Well no.=2407): 105%
- remaining activity at 3.75 µM ([2]; Well no.=2407): 105%

SMILES: COC(=O)Nc1nc2cc(C(=O)c3ccc(F)cc3)ccc2[nH]1 [Flubendazole]
- remaining activity at 1.25 µM ([1]; Well no.=2128): 101%
- remaining activity at 3.75 µM ([2]; Well no.=2128): 103%

SMILES: OC(Cn1cncn1)(Cn1cncn1)c1ccc(F)cc1F [Fluconazole]
- remaining activity at 1.25 µM ([1]; Well no.=2132): 99.9%
- remaining activity at 3.75 µM ([2]; Well no.=2132): 100%

SMILES: Nc1nc(=O)[nH]cc1F [Flucytosine (Ancobon)]
- remaining activity at 1.25 µM ([1]; Well no.=5335): 94.7%
- remaining activity at 3.75 µM ([2]; Well no.=5335): 101%

SMILES: Nc1nc(F)nc2c1ncn2[C@@H]1O[C@H](CO)[C@@H](O)[C@@H]1O [Fludarabine (Fludara)]
- remaining activity at 1.25 µM ([1]; Well no.=5249): 98.3%
- remaining activity at 3.75 µM ([2]; Well no.=5249): 99.9%

SMILES: Nc1nc(F)nc2c1ncn2[C@@H]1O[C@H](COP(=O)(O)O)[C@@H](O)[C@@H]1O [Fludarabine (phosphate)]
- remaining activity at 1.25 µM ([1]; Well no.=8046): 95.8%
- remaining activity at 3.75 µM ([2]; Well no.=8046): 98%

SMILES: Nc1nc(F)nc2c1ncn2[C@@H]1O[C@H](CO)[C@@H](O)[C@@H]1O [Fludarabine]
- remaining activity at 1.25 µM ([1]; Well no.=7962): 89.2%
- remaining activity at 3.75 µM ([2]; Well no.=7962): 88.2%

SMILES: CC(=O)OCC(=O)[C@@]1(O)CC[C@H]2[C@@H]3CCC4=CC(=O)CC[C@]4(C)[C@@]3(F)[C@@H](O)C[C@@]21C [Fludrocortisone acetate]
- remaining activity at 1.25 µM ([1]; Well no.=5827): 103%
- remaining activity at 3.75 µM ([2]; Well no.=5827): 104%

SMILES: O=C(O)c1ccccc1Nc1cccc(C(F)(F)F)c1 [Flufenamic acid]
- remaining activity at 1.25 µM ([1]; Well no.=1639): 104%
- remaining activity at 3.75 µM ([2]; Well no.=1639): 105%

SMILES: CCOC(=O)c1ncn2c1CN(C)C(=O)c1cc(F)ccc1-2 [Flumazenil]
- remaining activity at 1.25 µM ([1]; Well no.=517): 104%
- remaining activity at 1.25 µM ([1]; Well no.=1575): 103%
- remaining activity at 3.75 µM ([2]; Well no.=517): 106%
- remaining activity at 3.75 µM ([2]; Well no.=1575): 102%

SMILES: CC1CCc2cc(F)cc3c(=O)c(C(=O)O)cn1c23 (stereo not shown) [Flumequine]
- remaining activity at 1.25 µM ([1]; Well no.=5032): 96.8%
- remaining activity at 3.75 µM ([2]; Well no.=5032): 97.6%

SMILES: Cc1c(Nc2ncccc2C(=O)O)cccc1C(F)(F)F [Flunixin meglumin]
- remaining activity at 1.25 µM ([1]; Well no.=5094): 103%
- remaining activity at 3.75 µM ([2]; Well no.=5094): 108%

SMILES: CC1(C)O[C@@H]2C[C@H]3[C@@H]4C[C@H](F)C5=CC(=O)C=C[C@]5(C)[C@@]4(F)[C@@H](O)C[C@]3(C)[C@]2(C(=O)CO)O1 [Fluocinolone (Acetonide)]
- remaining activity at 1.25 µM ([1]; Well no.=6667): 108%
- remaining activity at 3.75 µM ([2]; Well no.=6667): 111%

SMILES: CC1(C)O[C@@H]2C[C@H]3[C@@H]4C[C@H](F)C5=CC(=O)C=C[C@]5(C)[C@@]4(F)[C@@H](O)C[C@]3(C)[C@]2(C(=O)CO)O1 [Fluocinolone acetonide]
- remaining activity at 1.25 µM ([1]; Well no.=2126): 97.3%
- remaining activity at 3.75 µM ([2]; Well no.=2126): 98.4%

SMILES: CC(=O)OCC(=O)[C@@]12OC(C)(C)O[C@@H]1C[C@H]1[C@@H]3C[C@H](F)C4=CC(=O)C=C[C@]4(C)[C@@]3(F)[C@@H](O)C[C@@]12C [Fluocinonide]
- remaining activity at 1.25 µM ([1]; Well no.=6805): 98.5%
- remaining activity at 3.75 µM ([2]; Well no.=6805): 99.9%

SMILES: CNCCC(Oc1ccc(C(F)(F)F)cc1)c1ccccc1 (stereo not shown) [Fluoxetine hydrochloride]
- remaining activity at 1.25 µM ([1]; Well no.=761): 95.3%
- remaining activity at 3.75 µM ([2]; Well no.=761): 93.4%

SMILES: CNCCC(Oc1ccc(C(F)(F)F)cc1)c1ccccc1 (stereo not shown) [Fluoxetine]
- remaining activity at 1.25 µM ([1]; Well no.=2102): 96.6%
- remaining activity at 3.75 µM ([2]; Well no.=2102): 98.8%

SMILES: CN1CCN(C2=Nc3cc(F)ccc3Cc3ccccc32)CC1 [Fluperlapine]
- remaining activity at 1.25 µM ([1]; Well no.=2100): 101%
- remaining activity at 3.75 µM ([2]; Well no.=2100): 98.8%

SMILES: CCOC(=O)Nc1ccc(NCc2ccc(F)cc2)nc1N [Flupirtine maleate]
- remaining activity at 1.25 µM ([1]; Well no.=711): 95.7%
- remaining activity at 3.75 µM ([2]; Well no.=711): 90.6%

SMILES: CC(C(=O)O)c1ccc(-c2ccccc2)c(F)c1 (stereo not shown) [Flurbiprofen]
- remaining activity at 1.25 µM ([1]; Well no.=2118): 99.6%
- remaining activity at 3.75 µM ([2]; Well no.=2118): 101%

SMILES: O=C1NCN(c2ccccc2)C12CCN(CCCC(c1ccc(F)cc1)c1ccc(F)cc1)CC2 [Fluspirilene]
- remaining activity at 1.25 µM ([1]; Well no.=569): 98.4%
- remaining activity at 3.75 µM ([2]; Well no.=569): 97.3%
- remaining activity at 3.75 µM ([2]; Well no.=1599): 98.9%

SMILES: CC(C)C(=O)Nc1ccc([N+](=O)[O-])c(C(F)(F)F)c1 [Flutamide]
- remaining activity at 1.25 µM ([1]; Well no.=759): 90.8%
- remaining activity at 1.25 µM ([1]; Well no.=2130): 93%
- remaining activity at 3.75 µM ([2]; Well no.=759): 97.8%
- remaining activity at 3.75 µM ([2]; Well no.=2130): 95%

SMILES: CCC(=O)O[C@]1(C(=O)SCF)[C@H](C)C[C@H]2[C@@H]3C[C@H](F)C4=CC(=O)C=C[C@]4(C)[C@@]3(F)[C@@H](O)C[C@@]21C [Fluticasone (propionate)]
- remaining activity at 1.25 µM ([1]; Well no.=7515): 98.2%
- remaining activity at 3.75 µM ([2]; Well no.=7515): 97.6%

SMILES: CC(C)n1c(/C=C/[C@@H](O)C[C@@H](O)CC(=O)O)c(-c2ccc(F)cc2)c2ccccc21 [Fluvastatin sodium (Lescol)]
- remaining activity at 1.25 µM ([1]; Well no.=4998): 106%
- remaining activity at 3.75 µM ([2]; Well no.=4998): 102%

SMILES: CC(C)n1c(/C=C/[C@H](O)C[C@H](O)CC(=O)O)c(-c2ccc(F)cc2)c2ccccc21 [Fluvastatin]
- remaining activity at 1.25 µM ([1]; Well no.=1902): 97.7%
- remaining activity at 3.75 µM ([2]; Well no.=1902): 98.9%

SMILES: COCCCC/C(=N\OCCN)c1ccc(C(F)(F)F)cc1 [Fluvoxamine maleate]
- remaining activity at 1.25 µM ([1]; Well no.=467): 95.7%
- remaining activity at 3.75 µM ([2]; Well no.=467): 96.4%

SMILES: C[C@@H](C(=O)O)N(C)C(=O)OCC1c2ccccc2-c2ccccc21 [Fmoc-N-Me-Ala-OH]
- remaining activity at 1.25 µM ([1]; Well no.=7976): 91.3%
- remaining activity at 3.75 µM ([2]; Well no.=7976): 92.8%

SMILES: CC(C)C[C@@H](C(=O)O)N(C)C(=O)OCC1c2ccccc2-c2ccccc21 [Fmoc-N-Me-Leu-OH]
- remaining activity at 1.25 µM ([1]; Well no.=7972): 92.7%
- remaining activity at 3.75 µM ([2]; Well no.=7972): 94.1%

SMILES: CN(C(=O)OCC1c2ccccc2-c2ccccc21)[C@@H](Cc1ccccc1)C(=O)O [Fmoc-N-Me-Phe-OH]
- remaining activity at 1.25 µM ([1]; Well no.=7888): 101%
- remaining activity at 3.75 µM ([2]; Well no.=7888): 102%

SMILES: Nc1nc(=O)c2nc(CNc3ccc(C(=O)N[C@@H](CCC(=O)O)C(=O)O)cc3)cnc2[nH]1 [Folic acid]
- remaining activity at 1.25 µM ([1]; Well no.=7300): 97.8%
- remaining activity at 3.75 µM ([2]; Well no.=7300): 96.1%

SMILES: COc1cc(=O)n(C)c2c(OCC(O)C(C)(C)O)cccc12 (stereo not shown) [Foliosidine]
- remaining activity at 1.25 µM ([1]; Well no.=565): 104%
- remaining activity at 3.75 µM ([2]; Well no.=565): 97.8%

SMILES: C[C@]12CCC(=O)C(O)=C1CC[C@@H]1[C@@H]2CC[C@]2(C)C(=O)CC[C@@H]12 [Formestane]
- remaining activity at 1.25 µM ([1]; Well no.=2134): 99.1%
- remaining activity at 3.75 µM ([2]; Well no.=2134): 101%
